Experimental data taken from BindingDB's records for doi:10.1016/j.bmcl.2007.02.049 (Gnf, 2007).

Molecular target: Cathepsin S (Homo sapiens, UniProt P25774)
Assay: Enzyme Inhibition Assay
Details: pH 5.5; 37 °C
Protocol: The recombinant human cathepsin enzyme was preincubated with inhibitor for 20 minutes prior to addition of substrate. The substrate hydrolysis was monitored by the increase in fluorescence at an excitation wavelength of 380nm and an emission wavelength of 450 nm on a Gemini EM fluorometer. The reaction progress curve was fitted to the Morrison equation using PlateKi (BioKin) and the apparent inhibition constant was converted to the inhibition constant (Ki) for competitive inhibitors.

Chain of Cathepsin S (P25774 whole entry): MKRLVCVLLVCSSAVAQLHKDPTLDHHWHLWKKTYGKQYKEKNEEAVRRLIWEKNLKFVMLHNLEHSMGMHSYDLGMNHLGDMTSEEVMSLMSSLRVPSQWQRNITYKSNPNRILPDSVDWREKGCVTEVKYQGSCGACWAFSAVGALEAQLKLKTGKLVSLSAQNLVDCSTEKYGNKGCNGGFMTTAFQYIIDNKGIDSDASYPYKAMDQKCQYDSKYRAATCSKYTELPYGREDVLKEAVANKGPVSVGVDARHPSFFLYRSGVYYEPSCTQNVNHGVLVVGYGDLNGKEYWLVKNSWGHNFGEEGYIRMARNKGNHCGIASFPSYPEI

O=C(N[C@@H](CCc1ccccc1)CNc1ccc(OC(F)(F)F)cc1)[C@H](CCC1CCCC1)CC(=O)N1CCOCC1 [(2R)-2-(2-cyclopentylethyl)-4-(morpholin-4-yl)-4-oxo-N-[(2S)-4-phenyl-1-{[4-(trifluoromethoxy)phenyl]amino}butan-2-yl]butanamide]
Ki: 20 nM
